Assay results: US9050345B2, “Pyrrolotriazines as potassium ion channel inhibitors” (BRISTOL-MYERS SQUIBB COMPANY, priority 2013, dated 2015)

Target: T1, human KV 1.5 (IKur) (Homo sapiens, UniProt P22460)
T1 construct: expressed in transfected cells
Experiment: block of IKur current in patch clamped L-929 cells expressing human Kv1.5
Type: cell-based
Conditions: patch clamped mammalian L-929 cells stably expressing human Kv1.5; for inhibition at 0.3 µM: L929, 0.3 μM, read-out: KV1_5% Inh L929 @0.3 μM

T1 sequence (P22460 whole entry): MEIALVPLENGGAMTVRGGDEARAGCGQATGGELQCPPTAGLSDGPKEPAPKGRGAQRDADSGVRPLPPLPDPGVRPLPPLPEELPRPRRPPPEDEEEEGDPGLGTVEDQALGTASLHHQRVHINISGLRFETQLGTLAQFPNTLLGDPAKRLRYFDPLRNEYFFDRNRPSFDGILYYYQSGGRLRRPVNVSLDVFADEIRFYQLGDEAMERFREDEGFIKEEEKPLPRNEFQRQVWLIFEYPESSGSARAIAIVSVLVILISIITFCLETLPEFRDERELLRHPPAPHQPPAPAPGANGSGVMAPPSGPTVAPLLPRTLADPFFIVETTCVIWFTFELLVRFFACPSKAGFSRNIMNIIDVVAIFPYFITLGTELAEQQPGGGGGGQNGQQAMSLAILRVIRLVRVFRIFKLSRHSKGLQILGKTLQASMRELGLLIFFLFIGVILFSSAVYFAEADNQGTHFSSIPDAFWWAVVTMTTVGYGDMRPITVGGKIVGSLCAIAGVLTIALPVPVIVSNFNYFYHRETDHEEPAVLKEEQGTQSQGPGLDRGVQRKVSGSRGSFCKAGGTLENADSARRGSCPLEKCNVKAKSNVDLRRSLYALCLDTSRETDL

Structure (SMILES) | KV1_5% Inh L929 @0.3 μM (0.3 μM) [%] | inhibition at 0.3 µM [%]
CC(=O)Nc1cncc(-c2nc(NCc3ccccn3)c3c(-c4ccccc4)ccn3n2)c1 [Example 47, N-(5-(5-phenyl-4-(pyridin-2-ylmethylamino)pyrrolo[1,2-f][1,2,4]triazin-2-yl)pyridin-3-yl)acetamide] |  | 94.8
NS(=O)(=O)c1cc(-c2nc(NCc3ccccn3)c3c(-c4ccccc4)ccn3n2)cnc1C(F)F [Example 39, 2-(Difluoromethyl)-5-(5-phenyl-4-(pyridin-2-ylmethylamino)pyrrolo[1,2-f][1,2,4]triazin-2-yl)pyridine-3-sulfonamide] |  | 97.1

More lines, now with the values ahead:

KV1_5% Inh L929 @0.3 μM (0.3 μM) [%] | inhibition at 0.3 µM [%] | Structure (SMILES)
97.64 |  | NS(=O)(=O)c1cncc(-c2nc(NC3CCCc4cccnc43)c3c(-c4ccccc4)ccn3n2)c1 (centres unmarked) [Example 171, 5-(5-phenyl-4-((5,6,7,8-tetrahydroquinolin-8-yl)amino)pyrrolo[2,1-f] [1,2,4]triazin-2-yl)pyridine-3-sulfonamide]
 | 92 | NS(=O)(=O)c1cncc(-c2nc(NCc3cccnc3)c3c(-c4ccccc4)ccn3n2)c1 [Example 158, 5-(5-phenyl-4-(pyridin-3-ylmethylamino)pyrrolo [1,2-f][1,2,4]triazin-2-yl)pyridine-3-sulfonamide]
 | 96 | Cc1cc(CNc2nc(-c3cncc(S(N)(=O)=O)c3)nn3ccc(-c4ccccc4)c23)no1 [Example 176, 5-(4-(((5-methylisoxazol-3-yl)methyl)amino)-5-phenylpyrrolo [2,1-f][1,2,4]triazin-2-yl)pyridine-3-sulfonamide]
